A short description of data set [1]: Animal biodistribution of 99mTc complexes in guinea pigs.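 Also: Heart, liver and kidney plus urine values are percent of the injected material, background-corrected.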 In kind it is in vivo, guinea pig.
Protocol: (§1) Percentage biodistribution of injected material was calculated (after correction for background) for all organs using the formula: [formula]
(§2) Since only samples of muscle and blood were taken, the percentage in these tissues was calculated assuming blood and muscle to represent 5.8 and 43% of total animal weight respectively using the formula: [formula]
Since only samples of muscle and blood were taken, the percentage in these tissues was calculated assuming blood and muscle to represent 5.8 and 43% of total animal weight respectively using the formula: [formula] where CF= 0.058 for blood
The conditions of data set [2]: rat, in vivo.
Protocol: In vivo biodistribution: 0.1 ml Tc^99m prep was injected i.v. into a laterial tail vein of 6 anaesthetised rats.
At 2 minutes and 60 minutes post-injection, 3 rats were sacrificed by decapitation, bled from the neck and dissected. The following organs were removed at dissection: kidney; bladder(+ urine), lung, liver, spleen, stomach, small intestine, large intestine, brain (weighed), heart (weighed), thyroid and samples of blood (weighed) and muscle (weighed), the residual carcass and the tail (injection site). Subsequently samples were counted in an automatic twin crystal gamma counter.
as §1, §2
Setting [3] is: guinea pig, 60 min p.i. in vivo, mean.
[4] abbreviates: guinea pig, 2 min p.i. in vivo, mean.
[5] abbreviates: Table VIII, [TcL3 ]^+ complex of the ligand, guinea pigs, 2 min p.i.
[6] abbreviates: Table VIII, [TcL3 ]^+ complex of the ligand, guinea pigs, 60 min p.i.
The mark [7] stands for this setting: from Table VIII, [TcL3 ]^+, guinea pigs, 60'.

Like-named read-outs stand apart in the source and are kept apart here.

Turning to `COC(CC(OC)P(C)C)P(C)C.COC(CC(OC)P(C)C)P(C)C.O=[N][99Tc+][Cl].[Cl-]` (stereo not shown) [Example 17], in data set [1] (setting [3]), the Blood was 1.31 % injected dose/organ, the Heart came out at 0.70 % injected dose/organ, the “Heart/Blood Counts/Gram ratio” value was determined as 13.9 and the “Heart/Liver Counts/Gram ratio” value is 4.21. For the same compound, in data set [1] (setting [3]), the “Heart/Lung Counts/Gram ratio” value stood at 1.3, the “Heart/Muscle Counts/Gram ratio” value is given as 6.81, the “Kidney + Urine” value was determined as 17.6 % injected dose/organ and the Liver is recorded as 2.76 % injected dose/organ. For the same compound, in data set [1] (setting [3]), the “Liver + GI” value is on record as 57.1 % injected dose/organ, the Lung worked out at 0.55 % injected dose/organ and the Muscle is on record as 1.60 % injected dose/organ. In addition, in data set [2] (60 min), the Blood came to 0.44 % injected dose/organ, the Heart was found to be 1.23 % injected dose/organ, the “Heart/Blood Counts/Gram ratio” value came out at 39.1 and the “Heart/Liver Counts/Gram ratio” value worked out at 2.47. Also, in data set [2] (60 min), the “Heart/Lung Counts/Gram ratio” value came to 2.7, the “Heart/Muscle Counts/Gram ratio” value is given as 5.51, the “Kidney + Urine” value was 15.8 % injected dose/organ and the Liver turned out to be 6.03 % injected dose/organ. In addition, in data set [2] (60 min), the “Liver + GI” value is given as 47.9 % injected dose/organ, the Lung came to 0.72 % injected dose/organ and the Muscle is on record as 22.9 % injected dose/organ.

Regarding `COCC(COC)(CP(C)C)CP(C)C.COCC(COC)(CP(C)C)CP(C)C.COCC(COC)(CP(C)C)CP(C)C.[99Tc+]` [Example 18], in data set [1] (setting [4]), the Blood worked out at 5.14 % injected dose/organ, the Heart came to 1.2 % injected dose/organ, the “Heart/Blood Counts/Gram ratio” value was 5.7 and the “Heart/Liver Counts/Gram ratio” value is on record as 1.12. Further, in data set [1] (setting [4]), the “Heart/Lung Counts/Gram ratio” value came to 0.6, the “Heart/Muscle Counts/Gram ratio” value amounted to 6.5, the “Kidney + Urine” value was 14.5 % injected dose/organ and the Liver is reported as 17.3 % injected dose/organ. In data set [1] (setting [4]), the “Liver + GI” value is reported as 36.9 % injected dose/organ, the Lung is reported as 1.65 % injected dose/organ and the Muscle is recorded as 27.4 % injected dose/organ. In data set [1] (setting [3]), the Blood is reported as 0.46 % injected dose/organ, the Heart came out at 1.06 % injected dose/organ, the “Heart/Blood Counts/Gram ratio” value was determined as 56.1 and the “Heart/Liver Counts/Gram ratio” value is on record as 5.63. In data set [1] (setting [3]), the “Heart/Lung Counts/Gram ratio” value was determined as 1.9, the “Heart/Muscle Counts/Gram ratio” value is recorded as 6.14, the “Kidney + Urine” value is 15.0 % injected dose/organ and the Liver amounted to 2.6 % injected dose/organ. In addition, in data set [1] (setting [3]), the “Liver + GI” value was 53.3 % injected dose/organ, the Lung amounted to 0.56 % injected dose/organ and the Muscle is given as 23.7 % injected dose/organ. In addition, in data set [2] (2 min), the Blood worked out at 2.85 injected dose/organ, the Heart came to 1.87 injected dose/organ, the “Heart/Blood Counts/Gram ratio” value turned out to be 10.4 and the “Heart/Liver Counts/Gram ratio” value stood at 1.68. For the same compound, in data set [2] (2 min), the “Heart/Lung Counts/Gram ratio” value was determined as 1.2, the “Heart/Muscle Counts/Gram ratio” value is recorded as 8.45, the “Kidney + Urine” value was 10.6 injected dose/organ and the Liver is 16.3 injected dose/organ. Further, in data set [2] (2 min), the “Liver + GI” value was determined as 36.4 injected dose/organ, the Lung worked out at 2.59 injected dose/organ and the Muscle is given as 26.3 injected dose/organ. In data set [2] (60 min), the Blood was determined as 0.14 injected dose/organ, the Heart is given as 1.41 injected dose/organ, the “Heart/Blood Counts/Gram ratio” value stood at 152 and the “Heart/Liver Counts/Gram ratio” value was 8.42. Also, in data set [2] (60 min), the “Heart/Lung Counts/Gram ratio” value is 3.2, the “Heart/Muscle Counts/Gram ratio” value was 8.36, the “Kidney + Urine” value is recorded as 12.2 injected dose/organ and the Liver was determined as 2.45 injected dose/organ. Moreover, in data set [2] (60 min), the “Liver + GI” value came out at 49.92 injected dose/organ, the Lung is reported as 0.75 injected dose/organ and the Muscle is given as 19.4 injected dose/organ.

As for `COC(CC(OC)P(C)C)P(C)C.COC(CC(OC)P(C)C)P(C)C.COC(CC(OC)P(C)C)P(C)C.[99Tc+]` (stereo not shown) [Example 16], in data set [1] (setting [3]), the Blood is given as 2.03 % injected dose/organ, the Heart stood at 0.57 % injected dose/organ, the “Heart/Blood Counts/Gram ratio” value is reported as 7.08 and the “Heart/Liver Counts/Gram ratio” value came to 0.94. Moreover, in data set [1] (setting [3]), the “Heart/Lung Counts/Gram ratio” value turned out to be 0.4, the “Heart/Muscle Counts/Gram ratio” value amounted to 3.98, the “Kidney + Urine” value is 23.3 % injected dose/organ and the Liver was 10.0 % injected dose/organ. Besides, in data set [1] (setting [3]), the “Liver + GI” value is given as 48.6 % injected dose/organ, the Lung was determined as 1.01 % injected dose/organ and the Muscle is listed as 20.7 % injected dose/organ. Further, in data set [2] (2 min), the Blood came out at 7.15 % injected dose/organ, the Heart is on record as 1.30 % injected dose/organ, the “Heart/Blood Counts/Gram ratio” value is listed as 2.78 and the “Heart/Liver Counts/Gram ratio” value is on record as 1.14. For the same compound, in data set [2] (2 min), the “Heart/Lung Counts/Gram ratio” value is recorded as 0.5, the “Heart/Muscle Counts/Gram ratio” value stood at 5.01, the “Kidney + Urine” value was found to be 9.33 % injected dose/organ and the Liver turned out to be 17.4 % injected dose/organ. Moreover, in data set [2] (2 min), the “Liver + GI” value was found to be 31.5 % injected dose/organ, the Lung was 3.57 % injected dose/organ and the Muscle is 29.1 % injected dose/organ. In data set [2] (60 min), the Blood is recorded as 0.64 % injected dose/organ, the Heart is recorded as 0.99 % injected dose/organ, the “Heart/Blood Counts/Gram ratio” value was determined as 22.1 and the “Heart/Liver Counts/Gram ratio” value worked out at 1.64. Also, in data set [2] (60 min), the “Heart/Lung Counts/Gram ratio” value worked out at 0.7, the “Heart/Muscle Counts/Gram ratio” value stood at 6.4, the “Kidney + Urine” value came out at 25.7 % injected dose/organ and the Liver is given as 8.81 % injected dose/organ. In data set [2] (60 min), the “Liver + GI” value came to 43.3 % injected dose/organ, the Lung is 1.79 % injected dose/organ and the Muscle amounted to 17.1 % injected dose/organ.

Turning to `COCP(C)CCP(C)COC` (stereo not shown) [Example 1, MeP(CH2 OMe)-(CH2)2 -(Me)P(CH2 OMe)], in data set [1] (setting [5]), the Heart is given as 0.98 % injected dose, the “Heart/Blood Counts/Gram ratio” value is listed as 1.63, the “Heart/Liver Counts/Gram ratio” value came out at 0.82 and the “Heart/Muscle Counts/Gram ratio” value was determined as 8.18. In addition, the Liver in data set [1] (setting [5]) came to 24.0 % injected dose. For the same compound, in data set [1] (setting [6]), the Heart stood at 0.83 % injected dose, the “Heart/Blood Counts/Gram ratio” value was 10.5, the “Heart/Liver Counts/Gram ratio” value is 0.72 and the “Heart/Muscle Counts/Gram ratio” value is 4.29. The same compound registered a Liver in data set [1] (setting [6]) of 13.3 % injected dose. Besides, the “heart uptake and retention compared with dmpe complex” value in data set [1] (from Table VIII, [TcL3 ]^+, guinea pigs, 2' and 60') was “increased heart uptake and retention at 2' and 60'”. For the same compound, in data set [1] (setting [7]), the “heart/blood ratio compared with dmpe complex” value is recorded as “better”, the “heart/liver ratio compared with dmpe complex” value is reported as “better”, the “heart/muscle ratio compared with dmpe complex” value is “better” and the “liver retention compared with dmpe complex” value is “much lower liver retention at 60'”. Moreover, in data set [2], the “heart uptake and retention compared with dmpe complex” value was “significantly higher heart uptake and retention at 2' and 60'”; the “heart/liver ratio compared with dmpe complex” value was “significantly increased heart/liver ratio at 60'”; the “liver retention compared with dmpe complex” value is recorded as “reduced liver retention at 60'”. In data set [2] (2 min), the Heart was 1.71 % injected dose, the “Heart/Blood Counts/Gram ratio” value is on record as 4.19, the “Heart/Liver Counts/Gram ratio” value is recorded as 1.81 and the “Heart/Muscle Counts/Gram ratio” value is given as 6.61. In data set [2] (2 min), this compound displayed a Liver of 12.6 % injected dose. Moreover, in data set [2] (60 min), the Heart turned out to be 1.42 % injected dose, the “Heart/Blood Counts/Gram ratio” value was 25.7, the “Heart/Liver Counts/Gram ratio” value is given as 10.8 and the “Heart/Muscle Counts/Gram ratio” value was determined as 5.46. The same compound showed a Liver in data set [2] (60 min) of 1.53 % injected dose.

`COCCOCC(COC)(CP(C)C)CP(C)C` [PL46]: in data set [2] (2 min), the HEART/BLOOD stood at 14.0, the HEART/LIVER was 1.82 and the Heart was 1.87. Also, in data set [2] (60 min), the HEART/BLOOD amounted to 345, the HEART/LIVER was 17.1 and the Heart is on record as 1.77.

In data set [2] (2 min), `CP(C)CC1(CP(C)C)CCOCC1` [PL49] yielded an HEART/BLOOD of 1.13, an HEART/LIVER of 0.11 and a Heart of 0.32. In data set [2] (60 min), this compound gave an HEART/BLOOD of 131, an HEART/LIVER of 0.24 and a Heart of 0.18.

As to `COC(CC(OC)P(C)C)P(C)C` (stereo not shown) [PL30], in data set [2] (2 min), the HEART/BLOOD is on record as 2.78, the HEART/LIVER was found to be 5.01 and the Heart stood at 1.30.

In data set [2] (2 min), `CP(C)CC1(CP(C)C)COC(C)(C)OC1` [PL35] gave an HEART/BLOOD of 4.07, an HEART/LIVER of 0.46 and a Heart of 0.88. Also, in data set [2] (60 min), the HEART/BLOOD came to 35.3, the HEART/LIVER is given as 1.65 and the Heart was 0.55.

In data set [2] (2 min), `CCOCCOCCOC(CP(C)C)CP(C)C` [PL41] had an HEART/BLOOD of 7.83, an HEART/LIVER of 0.83 and a Heart of 1.08. In data set [2] (60 min), this compound gave an HEART/BLOOD of 122, an HEART/LIVER of 4.65 and a Heart of 1.02.

Source of the values: patent US4916214A, “Cationic complexes of technetium-99m” (Amersham International plc., priority 1987, dated 1990).
